Measurements published in ChEMBL document CHEMBL3860026, “Depsidones from Lichens as Natural Product Inhibitors of M-Phase Phosphoprotein 1, a Human Kinesin Required for Cytokinesis” (J Nat Prod, 2016).
Values after ≈ are worked out from the molar mass of the structure shown. Active and inactive are the calls of the source. No cut-off for these calls is given here.

Columns and labels:
[1] = Cytotoxicity against human J82 cells assessed as growth inhibition after 72 hrs by Alamar Blue assay; assay type: functional, cell-based; conditions: J82, 72 h
[2] = Cytotoxicity against human BxPC3 cells assessed as growth inhibition after 72 hrs by Alamar Blue assay; assay type: functional, cell-based; conditions: BXPC-3, 72 h
[3] = Solubility of the compound in phosphate buffered saline at pH 6 after 2 hrs by turbidimetric method; assay type: physicochemical
[4] = Apparent passive permeability of the compound at 10 uM after 5 hrs by PAMPA; assay type: ADME; conditions: pampa, 5 h, 10 µM
[5] = Intrinsic clearance in mouse liver microsomes assessed per mg of protein at 3 uM after 5 to 60 mins by LC-MS/MS method; assay type: ADME; conditions: read-out: CLH
[6] = target: T1, Kinesin-like protein KIF20B (Homo sapiens, UniProt Q96Q89); conditions: 1 to 20 uM
T1 sequence (Q96Q89 whole entry): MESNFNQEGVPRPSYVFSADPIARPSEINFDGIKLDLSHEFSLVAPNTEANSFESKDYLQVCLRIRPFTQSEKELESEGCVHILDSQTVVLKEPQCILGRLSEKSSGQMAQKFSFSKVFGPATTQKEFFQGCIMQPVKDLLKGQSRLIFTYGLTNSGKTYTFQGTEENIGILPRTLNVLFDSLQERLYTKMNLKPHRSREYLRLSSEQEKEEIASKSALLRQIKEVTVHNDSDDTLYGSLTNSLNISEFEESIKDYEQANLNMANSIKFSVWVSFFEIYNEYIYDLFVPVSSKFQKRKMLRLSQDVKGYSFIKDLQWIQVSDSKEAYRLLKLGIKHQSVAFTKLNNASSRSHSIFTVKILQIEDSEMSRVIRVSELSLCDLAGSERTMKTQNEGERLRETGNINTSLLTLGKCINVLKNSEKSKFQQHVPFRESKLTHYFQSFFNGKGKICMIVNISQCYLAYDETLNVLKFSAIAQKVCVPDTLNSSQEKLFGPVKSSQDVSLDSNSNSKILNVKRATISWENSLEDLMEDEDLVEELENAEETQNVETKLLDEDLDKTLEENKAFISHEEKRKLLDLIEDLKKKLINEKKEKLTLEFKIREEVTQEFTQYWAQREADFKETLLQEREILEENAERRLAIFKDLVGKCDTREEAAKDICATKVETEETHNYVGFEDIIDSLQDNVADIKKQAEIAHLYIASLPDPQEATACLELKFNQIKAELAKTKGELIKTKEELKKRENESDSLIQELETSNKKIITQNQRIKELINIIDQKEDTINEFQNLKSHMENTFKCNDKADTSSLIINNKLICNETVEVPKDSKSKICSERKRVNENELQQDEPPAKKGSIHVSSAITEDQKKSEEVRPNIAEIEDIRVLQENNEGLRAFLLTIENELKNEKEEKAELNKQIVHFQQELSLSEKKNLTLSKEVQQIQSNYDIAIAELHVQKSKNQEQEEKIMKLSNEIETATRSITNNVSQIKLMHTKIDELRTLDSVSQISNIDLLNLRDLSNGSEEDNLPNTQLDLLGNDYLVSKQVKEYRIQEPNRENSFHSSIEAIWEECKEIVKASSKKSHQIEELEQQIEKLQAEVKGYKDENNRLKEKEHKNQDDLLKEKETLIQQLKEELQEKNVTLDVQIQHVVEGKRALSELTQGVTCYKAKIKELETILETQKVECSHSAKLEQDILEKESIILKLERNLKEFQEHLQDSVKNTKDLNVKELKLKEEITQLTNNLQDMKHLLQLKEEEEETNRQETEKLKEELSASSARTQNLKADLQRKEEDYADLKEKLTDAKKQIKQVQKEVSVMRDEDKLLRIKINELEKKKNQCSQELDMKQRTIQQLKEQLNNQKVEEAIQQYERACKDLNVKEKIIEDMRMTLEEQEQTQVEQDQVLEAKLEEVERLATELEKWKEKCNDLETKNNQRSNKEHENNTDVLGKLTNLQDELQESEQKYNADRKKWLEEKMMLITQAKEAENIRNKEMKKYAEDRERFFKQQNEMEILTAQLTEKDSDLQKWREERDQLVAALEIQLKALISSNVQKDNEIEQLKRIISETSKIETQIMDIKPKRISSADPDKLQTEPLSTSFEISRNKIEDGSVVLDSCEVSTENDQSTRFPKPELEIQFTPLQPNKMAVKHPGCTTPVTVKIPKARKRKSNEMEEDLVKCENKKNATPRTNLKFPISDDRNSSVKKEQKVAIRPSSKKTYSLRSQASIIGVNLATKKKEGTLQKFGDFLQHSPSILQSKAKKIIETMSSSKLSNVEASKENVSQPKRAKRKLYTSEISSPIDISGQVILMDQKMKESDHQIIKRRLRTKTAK

[7] = target: T2, Centromere-associated protein E (Homo sapiens, UniProt Q02224); test: Inhibition of basal ATPase activity of human CENP-E by pyruvate kinase/lactate dehydrogenase-linked assay
T2 sequence (Q02224 whole entry): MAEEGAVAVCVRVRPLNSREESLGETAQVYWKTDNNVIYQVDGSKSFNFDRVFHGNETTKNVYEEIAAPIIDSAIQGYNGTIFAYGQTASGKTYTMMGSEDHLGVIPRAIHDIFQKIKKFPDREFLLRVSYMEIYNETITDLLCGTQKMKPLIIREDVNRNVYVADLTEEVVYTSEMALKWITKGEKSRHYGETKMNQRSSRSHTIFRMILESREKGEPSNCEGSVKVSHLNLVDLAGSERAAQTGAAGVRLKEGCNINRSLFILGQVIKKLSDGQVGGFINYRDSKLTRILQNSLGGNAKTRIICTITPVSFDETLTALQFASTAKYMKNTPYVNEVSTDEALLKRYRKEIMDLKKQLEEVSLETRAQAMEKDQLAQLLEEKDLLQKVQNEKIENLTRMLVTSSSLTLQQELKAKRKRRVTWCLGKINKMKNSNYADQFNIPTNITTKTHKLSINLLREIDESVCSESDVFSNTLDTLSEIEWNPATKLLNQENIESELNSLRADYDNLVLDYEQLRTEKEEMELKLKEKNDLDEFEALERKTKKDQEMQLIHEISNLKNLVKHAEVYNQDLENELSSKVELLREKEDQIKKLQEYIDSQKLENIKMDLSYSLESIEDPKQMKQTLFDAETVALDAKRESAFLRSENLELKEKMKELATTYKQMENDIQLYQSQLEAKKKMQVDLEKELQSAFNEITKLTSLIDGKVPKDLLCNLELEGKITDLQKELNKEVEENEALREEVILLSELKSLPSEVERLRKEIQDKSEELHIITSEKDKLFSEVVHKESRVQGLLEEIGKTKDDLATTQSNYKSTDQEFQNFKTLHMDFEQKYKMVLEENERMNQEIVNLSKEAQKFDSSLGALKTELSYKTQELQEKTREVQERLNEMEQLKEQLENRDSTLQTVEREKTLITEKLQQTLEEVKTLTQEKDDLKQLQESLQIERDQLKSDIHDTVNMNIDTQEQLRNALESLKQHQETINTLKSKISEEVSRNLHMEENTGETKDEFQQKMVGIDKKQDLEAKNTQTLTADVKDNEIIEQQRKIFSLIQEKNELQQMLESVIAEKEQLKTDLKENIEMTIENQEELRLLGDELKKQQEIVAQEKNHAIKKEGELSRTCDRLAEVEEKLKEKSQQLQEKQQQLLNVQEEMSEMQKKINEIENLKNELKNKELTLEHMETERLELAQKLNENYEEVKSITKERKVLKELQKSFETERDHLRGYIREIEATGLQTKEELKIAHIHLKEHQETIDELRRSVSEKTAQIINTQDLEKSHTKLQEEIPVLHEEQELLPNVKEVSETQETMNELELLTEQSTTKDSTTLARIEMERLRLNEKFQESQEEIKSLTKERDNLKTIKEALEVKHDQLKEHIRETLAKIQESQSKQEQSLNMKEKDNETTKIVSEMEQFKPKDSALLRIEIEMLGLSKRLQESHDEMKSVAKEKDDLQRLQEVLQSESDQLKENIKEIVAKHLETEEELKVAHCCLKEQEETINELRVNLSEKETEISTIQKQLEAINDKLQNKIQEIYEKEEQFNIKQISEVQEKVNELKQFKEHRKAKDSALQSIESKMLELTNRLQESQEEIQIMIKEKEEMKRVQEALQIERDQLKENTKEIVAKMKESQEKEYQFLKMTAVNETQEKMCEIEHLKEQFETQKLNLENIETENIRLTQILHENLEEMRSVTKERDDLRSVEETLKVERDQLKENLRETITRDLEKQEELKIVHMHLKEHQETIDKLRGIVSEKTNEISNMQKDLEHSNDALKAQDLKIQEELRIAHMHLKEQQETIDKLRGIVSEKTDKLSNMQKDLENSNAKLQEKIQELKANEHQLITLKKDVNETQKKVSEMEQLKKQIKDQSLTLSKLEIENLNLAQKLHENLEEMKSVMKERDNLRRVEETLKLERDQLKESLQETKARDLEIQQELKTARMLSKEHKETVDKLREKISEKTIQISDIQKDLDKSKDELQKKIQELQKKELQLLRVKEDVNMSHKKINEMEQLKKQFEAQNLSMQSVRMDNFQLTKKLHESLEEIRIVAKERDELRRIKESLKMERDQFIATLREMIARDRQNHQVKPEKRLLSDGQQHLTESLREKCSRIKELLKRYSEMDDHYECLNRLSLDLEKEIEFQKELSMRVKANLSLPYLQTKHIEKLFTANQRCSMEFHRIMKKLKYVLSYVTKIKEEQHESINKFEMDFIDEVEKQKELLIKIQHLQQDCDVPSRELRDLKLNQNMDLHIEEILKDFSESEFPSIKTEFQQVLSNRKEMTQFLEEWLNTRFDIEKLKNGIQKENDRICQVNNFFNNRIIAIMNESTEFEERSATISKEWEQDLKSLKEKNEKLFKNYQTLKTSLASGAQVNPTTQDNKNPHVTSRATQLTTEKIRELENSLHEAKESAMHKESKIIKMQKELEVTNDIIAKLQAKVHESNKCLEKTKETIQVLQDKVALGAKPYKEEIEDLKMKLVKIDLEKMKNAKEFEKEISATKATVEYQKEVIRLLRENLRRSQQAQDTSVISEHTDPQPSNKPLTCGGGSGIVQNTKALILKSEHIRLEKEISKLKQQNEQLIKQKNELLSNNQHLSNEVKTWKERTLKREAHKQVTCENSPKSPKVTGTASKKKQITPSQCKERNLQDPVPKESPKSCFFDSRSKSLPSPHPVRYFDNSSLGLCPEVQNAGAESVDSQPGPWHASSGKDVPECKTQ

[8] = target: T2, Centromere-associated protein E; test: Inhibition of microtubule-stimulated ATPase activity of human CENP-E by pyruvate kinase/lactate dehydrogenase-linked assay
[9] = target: T3, Kinesin-like protein KIF9 (Homo sapiens) (UniProt Q9HAQ2); test: Inhibition of basal ATPase activity of human Kif9 at 200 uM by pyruvate kinase/lactate dehydrogenase-linked assay
T3 sequence (whole entry): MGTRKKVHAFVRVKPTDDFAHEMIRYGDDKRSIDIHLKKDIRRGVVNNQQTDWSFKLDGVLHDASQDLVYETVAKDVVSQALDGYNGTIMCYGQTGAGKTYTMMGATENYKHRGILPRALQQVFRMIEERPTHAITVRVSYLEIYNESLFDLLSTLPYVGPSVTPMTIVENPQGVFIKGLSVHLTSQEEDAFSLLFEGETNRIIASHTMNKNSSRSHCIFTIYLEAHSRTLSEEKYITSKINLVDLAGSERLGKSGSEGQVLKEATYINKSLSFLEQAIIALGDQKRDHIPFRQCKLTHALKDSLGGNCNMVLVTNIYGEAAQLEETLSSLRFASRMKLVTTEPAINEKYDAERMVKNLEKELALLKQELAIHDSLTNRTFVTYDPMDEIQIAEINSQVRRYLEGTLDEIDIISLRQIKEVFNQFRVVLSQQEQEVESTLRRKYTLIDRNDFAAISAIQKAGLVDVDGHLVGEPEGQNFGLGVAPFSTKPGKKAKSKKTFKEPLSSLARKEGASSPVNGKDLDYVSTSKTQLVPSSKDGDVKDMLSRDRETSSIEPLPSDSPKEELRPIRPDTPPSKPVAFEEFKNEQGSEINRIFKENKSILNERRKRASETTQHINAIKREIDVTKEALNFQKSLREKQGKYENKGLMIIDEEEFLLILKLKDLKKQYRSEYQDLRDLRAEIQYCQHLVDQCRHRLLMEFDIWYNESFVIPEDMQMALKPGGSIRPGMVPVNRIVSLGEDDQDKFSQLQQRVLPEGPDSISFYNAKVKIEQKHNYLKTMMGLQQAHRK

[10] = target: T1, Kinesin-like protein KIF20B; conditions: 1 to 20 uM; remark: listed apart in the source
[11] = target: T1, Kinesin-like protein KIF20B; test: Inhibition of basal ATPase activity of N-terminal His6-tagged/SUMO-fused human MPP1 motor domain (2 to 477 residues) expressed in Escherichia coli BL21 CodonPlus in presence of 0.1% Tween-20 by pyruvate kinase/lactate dehydrogenase-linked assay
[12] = n-octanol-buffer distribution co-efficient, log D of the compound at pH 7.4 by shake flask method; assay type: physicochemical
[13] = target: T4, Chromosome-associated kinesin KIF4A (Homo sapiens) (UniProt O95239); test: Inhibition of microtubule-stimulated ATPase activity of human Kif4A at 200 uM by pyruvate kinase/lactate dehydrogenase-linked assay
T4 sequence (whole entry): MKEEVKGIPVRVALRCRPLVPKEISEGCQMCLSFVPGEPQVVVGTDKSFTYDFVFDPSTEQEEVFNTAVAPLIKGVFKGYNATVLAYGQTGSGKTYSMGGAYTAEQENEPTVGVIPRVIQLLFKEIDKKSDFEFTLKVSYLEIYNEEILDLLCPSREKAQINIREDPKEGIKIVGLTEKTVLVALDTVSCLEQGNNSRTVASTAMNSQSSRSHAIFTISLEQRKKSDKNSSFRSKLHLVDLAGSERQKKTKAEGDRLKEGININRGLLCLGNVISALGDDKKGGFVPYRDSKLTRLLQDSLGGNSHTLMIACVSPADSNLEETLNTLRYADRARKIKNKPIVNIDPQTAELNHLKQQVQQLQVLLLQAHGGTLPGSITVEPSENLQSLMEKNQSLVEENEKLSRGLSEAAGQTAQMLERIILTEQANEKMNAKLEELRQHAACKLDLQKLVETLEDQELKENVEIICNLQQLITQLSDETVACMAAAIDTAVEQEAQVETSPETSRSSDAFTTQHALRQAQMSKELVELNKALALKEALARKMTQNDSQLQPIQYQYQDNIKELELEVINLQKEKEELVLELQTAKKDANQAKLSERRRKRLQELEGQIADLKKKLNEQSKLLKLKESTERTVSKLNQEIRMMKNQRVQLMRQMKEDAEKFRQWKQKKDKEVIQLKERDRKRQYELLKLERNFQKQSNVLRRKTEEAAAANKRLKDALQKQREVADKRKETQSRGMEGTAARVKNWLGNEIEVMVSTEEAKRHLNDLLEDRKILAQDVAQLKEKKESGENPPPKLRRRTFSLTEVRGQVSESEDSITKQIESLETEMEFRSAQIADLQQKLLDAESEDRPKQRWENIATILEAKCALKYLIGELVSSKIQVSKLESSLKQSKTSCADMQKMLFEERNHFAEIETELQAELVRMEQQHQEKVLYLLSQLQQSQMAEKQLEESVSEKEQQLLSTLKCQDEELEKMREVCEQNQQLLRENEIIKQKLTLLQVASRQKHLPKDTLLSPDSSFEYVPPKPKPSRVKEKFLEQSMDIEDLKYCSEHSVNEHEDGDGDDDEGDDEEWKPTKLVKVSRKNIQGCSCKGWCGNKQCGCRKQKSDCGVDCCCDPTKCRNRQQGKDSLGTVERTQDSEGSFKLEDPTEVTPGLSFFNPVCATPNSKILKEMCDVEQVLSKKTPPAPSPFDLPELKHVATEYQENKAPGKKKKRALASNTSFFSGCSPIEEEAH

[14] = Half life in human liver microsomes at 3 uM by LC-MS/MS method; assay type: ADME
[15] = target: T4, Chromosome-associated kinesin KIF4A (Homo sapiens); test: Inhibition of basal ATPase activity of human Kif4A at 200 uM by pyruvate kinase/lactate dehydrogenase-linked assay
[16] = target: T1, Kinesin-like protein KIF20B; test: Inhibition of basal ATPase activity of N-terminal His6-tagged/SUMO-fused human MPP1 motor domain (2 to 477 residues) expressed in Escherichia coli BL21 CodonPlus by pyruvate kinase/lactate dehydrogenase-linked assay

CCCCCC(=O)Cc1cc(O)cc2c1C(=O)Oc1cc(O)c(C(=O)O)c(CCCCC)c1O2 [PHYSODIC ACID]
EC50 [1]: 38.2 µM
EC50 [2]: 37.3 µM
solubility kinetic at 2 h [3]: 65 µM (≈ 30.6 µg/mL)
Papp [4]: Impermeable
microsomal CLint at 3 µM [5]: 61.6 µL/min/mg
inhibition [6]: Active
IC50 [7]: 29.6 µM
IC50 [8]: 91.4 µM
inhibition [9]: 40%
inhibition [10]: Active
inhibition [11]: Active
logD [12]: 3
inhibition [13]: 40%
half-life at 3 µM [14]: 4.5 min
inhibition [15]: 40%
IC50 [16]: 10.4 µM
Imax [16]: 90%
